Values joined by “and” are separate entries in the source; they are usually repeats but may differ in a detail not shown here. Equal values may be shown once. Read-outs that look alike come from different tables or passages of the source.
Molecular target: Adenosine A2A receptor (Homo sapiens, UniProt P29274)
Assay: cAMP assay in 293A cells stably expressing the adenosine A2A receptor (CGS21680 stimulation, HTRF)
Assay type: cell-based
Design: expressed in transfected cells; host or cells: 293A cells (Invitrogen, Cat# R705-07) infected with A2A-expressing lentivirus (custom packaged by Biosettia), puromycin selected
Conditions: 0.1% BSA, read-out: cAMP (nM) 0.1% BSA, 1 uM CGS
[1] = 293A cells stably expressing A2A receptor, 1 uM CGS21680 stimulation, replicate values separated by /

Sequence of Adenosine A2A receptor (P29274 whole entry): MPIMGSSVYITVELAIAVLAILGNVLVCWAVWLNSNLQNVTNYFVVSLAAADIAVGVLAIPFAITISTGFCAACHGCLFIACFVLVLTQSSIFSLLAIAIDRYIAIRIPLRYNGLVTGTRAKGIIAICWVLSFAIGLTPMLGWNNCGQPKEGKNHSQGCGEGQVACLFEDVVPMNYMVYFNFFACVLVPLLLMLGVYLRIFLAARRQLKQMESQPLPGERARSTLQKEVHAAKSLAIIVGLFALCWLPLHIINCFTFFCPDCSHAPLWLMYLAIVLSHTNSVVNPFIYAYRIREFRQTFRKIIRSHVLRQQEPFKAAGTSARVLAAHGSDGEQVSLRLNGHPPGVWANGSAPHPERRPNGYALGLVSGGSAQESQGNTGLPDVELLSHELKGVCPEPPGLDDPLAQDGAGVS

Row | Structure (SMILES) | IC50 (293A-A2AR cells, 1 uM CGS) | IC50 [1]
1 | Cc1cc(-c2c(OCc3ncc(C(C)(O)C(=O)O)n3C)nc(N)nc2-c2ccc(F)cc2)cc(C(F)F)n1 (centres unmarked) [Example 395, 2-(2-(((2-amino-5-(2-(difluoromethyl)-6-methylpyridin-4-yl)-6-(4-fluorophenyl)pyrimidin-4-yl)oxy)methyl)-1-methyl-1H-imidazol-5-yl)-2-hydroxypropanoic acid] | > 50000 nM | –
2 | Cc1cc(-c2c(COc3cccc(C(C)C)n3)nc(N)nc2-c2ccc(F)cc2)cc(C(F)F)n1 [Example 397, 5-(2-(difluoromethyl)-6-methylpyridin-4-yl)-4-(4-fluorophenyl)-6-(((6-isopropylpyridin-2-yl)oxy)methyl)pyrimidin-2-amine] | – | 9.4 nM and 32 nM and 26 nM and 17 nM
3 | Cc1cc(-c2c(OCc3cccc(C(C)(C)c4nn[nH]n4)n3)nc(N)nc2-c2ccc(F)cc2)cc(C(F)F)n1 [Example 400, 4-((6-(2-(2H-tetrazol-5-yl)propan-2-yl)pyridin-2-yl)methoxy)-5-(2-(difluoromethyl)-6-methylpyridin-4-yl)-6-(4-fluorophenyl)pyrimidin-2-amine] | – | 1000 nM and 1470 nM and 1440 nM
4 | Cc1cc(-c2c(OCc3nc(C(C)(C)O)cn3C)nc(N)nc2-c2ccc(F)cc2)cc(C(F)F)n1 [Example 401, 2-(2-(((2-amino-5-(2-(difluoromethyl)-6-methylpyridin-4-yl)-6-(4-fluorophenyl)pyrimidin-4-yl)oxy)methyl)-1-methyl-1H-imidazol-4-yl)propan-2-ol] | – | 318 nM and 246 nM and 259 nM
5 | Cc1cc(-c2c(OCc3cccc(NS(C)(=O)=O)n3)nc(N)nc2-c2ccc(F)cc2)cc(C(F)F)n1 [Example 411, N-(6-(((2-amino-5-(2-(difluoromethyl)-6-methylpyridin-4-yl)-6-(4-fluorophenyl)pyrimidin-4-yl)oxy)methyl)pyridin-2-yl)methanesulfonamide] | – | 3190 nM
6 | Cc1cc(-c2c(OCc3cccc(CN)n3)nc(N)nc2-c2ccc(F)cc2)cc(C(F)F)n1 [Example 412, 4-((6-(aminomethyl)pyridin-2-yl)methoxy)-5-(2-(difluoromethyl)-6-methylpyridin-4-yl)-6-(4-fluorophenyl)pyrimidin-2-amine] | – | 503 nM and 747 nM
7 | Cc1cc(-c2c(OCc3cccc(CNCC(=O)O)n3)nc(N)nc2-c2ccc(F)cc2)cc(C(F)F)n1 [Example 414, ((6-(((2-amino-5-(2-(difluoromethyl)-6-methylpyridin-4-yl)-6-(4-fluorophenyl)pyrimidin-4-yl)oxy)methyl)pyridin-2-yl)methyl)glycine] | – | 2050 nM
8 | Cc1cc(-c2c(OCc3cc(C(C)(C)O)cc(C(C)(C)O)n3)nc(N)nc2-c2ccc(F)cc2)cc(C(F)F)n1 [Example 421, 2,2′-(6-(((2-amino-5-(2-(difluoromethyl)-6-methylpyridin-4-yl)-6-(4-fluorophenyl)pyrimidin-4-yl)oxy)methyl)pyridine-2,4-diyl)bis(propan-2-ol)] | – | 3420 nM
9 | Cc1cc(-c2c(OCc3cc(C(C)(C)O)cc(-c4nnnn4C)n3)nc(N)nc2-c2ccc(F)cc2)cc(C(F)F)n1 [Example 426, 2-(2-(((2-amino-5-(2-(difluoromethyl)-6-methylpyridin-4-yl)-6-(4-fluorophenyl)pyrimidin-4-yl)oxy)methyl)-6-(1-methyl-1H-tetrazol-5-yl)pyridin-4-yl)propan-2-ol] | – | 7980 nM and 6190 nM
10 | Cc1cc(-c2c(OCc3cc(C(C)(C)O)cc(-c4nnn(C)n4)n3)nc(N)nc2-c2ccc(F)cc2)cc(C(F)F)n1 [Example 427, 2-(2-(((2-amino-5-(2-(difluoromethyl)-6-methylpyridin-4-yl)-6-(4-fluorophenyl)pyrimidin-4-yl)oxy)methyl)-6-(2-methyl-2H-tetrazol-5-yl)pyridin-4-yl)propan-2-ol] | – | 5150 nM and 6010 nM
11 | Cc1cc(-c2c(OCc3nccc4nn(C)cc34)nc(N)nc2-c2ccc(F)cc2)cc(C(F)F)n1 [Example 430, 5-(2-(difluoromethyl)-6-methylpyridin-4-yl)-4-(4-fluorophenyl)-6-((2-methyl-2H-pyrazolo[4,3-c]pyridin-4-yl)methoxy)pyrimidin-2-amine] | – | 2460 nM
12 | Cc1cc(-c2c(OCc3cccc(CN(CC(=O)N(C)C)CC(=O)N(C)C)n3)nc(N)nc2-c2ccc(F)cc2)cc(C(F)F)n1 [Example 436, 2,2′-(((6-(((2-amino-5-(2-(difluoromethyl)-6-methylpyridin-4-yl)-6-(4-fluorophenyl)pyrimidin-4-yl)oxy)methyl)pyridin-2-yl)methyl)azanediyl)bis(N, N-dimethylacetamide)] | – | 894 nM and 530 nM
13 | Cc1cc(-c2c(OCc3nc(C(C)(C)O)ccc3C(C)(C)O)nc(N)nc2-c2ccc(F)cc2)cc(C(F)F)n1 [Example 438, 2,2-(6-(((2-amino-5-(2-(difluoromethyl)-6-methylpyridin-4-yl)-6-(4-fluorophenyl)pyrimidin-4-yl)oxy)methyl)pyridine-2,5-diyl)bis(propan-2-ol)] | – | 3180 nM
14 | Cc1cc(-c2c(OCc3cc(-c4nnnn4C)cc(C(C)(C)O)n3)nc(N)nc2-c2ccc(F)cc2)cc(C(F)F)n1 [Example 443, 2-(6-(((2-amino-5-(2-(difluoromethyl)-6-methylpyridin-4-yl)-6-(4-fluorophenyl)pyrimidin-4-yl)oxy)methyl)-4-(1-methyl-1H-tetrazol-5-yl)pyridin-2-yl)propan-2-ol] | – | 23200 nM

The next lines start with the values.

Row | IC50 (293A-A2AR cells, 1 uM CGS) | IC50 [1] | Structure (SMILES)
15 | – | 869 nM and 634 nM | Cc1cc(-c2c(OCc3nc4cccc(C(C)(C)O)c4n3C)nc(N)nc2-c2ccc(F)cc2)cc(C(F)F)n1 [Example 396, 2-(2-(((2-amino-5-(2-(difluoromethyl)-6-methylpyridin-4-yl)-6-(4-fluorophenyl)pyrimidin-4-yl)oxy)methyl)-1-methyl-1H-benzo[d]imidazol-7-yl)propan-2-ol]
16 | – | 1370 nM and 1800 nM | Cc1cc(-c2c(OCc3nc(C(C)(C)O)cc4ccccc34)nc(N)nc2-c2ccc(F)cc2)cc(C(F)F)n1 [Example 404, 2-(1-(((2-amino-5-(2-(difluoromethyl)-6-methylpyridin-4-yl)-6-(4-fluorophenyl)pyrimidin-4-yl)oxy)methyl)isoquinolin-3-yl)propan-2-ol]
17 | – | 619 nM | Cc1cc(-c2c(OCc3nc(OCC(=O)O)cc4ccccc34)nc(N)nc2-c2ccc(F)cc2)cc(C(F)F)n1 [Example 405, 2-((1-(((2-amino-5-(2-(difluoromethyl)-6-methylpyridin-4-yl)-6-(4-fluorophenyl)pyrimidin-4-yl)oxy)methyl)isoquinolin-3-yl)oxy)acetic acid]
18 | – | 719 nM | Cc1cc(-c2c(OCc3nc(NCC(=O)O)cc4ccccc34)nc(N)nc2-c2ccc(F)cc2)cc(C(F)F)n1 [Example 406, (1-(((2-amino-5-(2-(difluoromethyl)-6-methylpyridin-4-yl)-6-(4-fluorophenyl)pyrimidin-4-yl)oxy)methyl)isoquinolin-3-yl)glycine]
19 | – | 977 nM and 822 nM | Cc1cc(-c2c(OCc3cccc(CNS(C)(=O)=O)n3)nc(N)nc2-c2ccc(F)cc2)cc(C(F)F)n1 [Example 409, N-((6-(((2-amino-5-(2-(difluoromethyl)-6-methylpyridin-4-yl)-6-(4-fluorophenyl)pyrimidin-4-yl)oxy)methyl)pyridin-2-yl)methyl) methanesulfonamide]
20 | – | 498 nM and 615 nM | Cc1cc(-c2c(OCc3nccc4c3nnn4C)nc(N)nc2-c2ccc(F)cc2)cc(C(F)F)n1 [Example 416, 5-(2-(difluoromethyl)-6-methylpyridin-4-yl)-4-(4-fluorophenyl)-6-((1-methyl-1H-[1,2,3]triazolo[4,5-c]pyridin-4-yl)methoxy)pyrimidin-2-amine]
21 | – | 435 nM and 732 nM | Cc1cc(-c2c(OCc3nccc4c3cnn4C)nc(N)nc2-c2ccc(F)cc2)cc(C(F)F)n1 [Example 423, 5-(2-(difluoromethyl)-6-methylpyridin-4-yl)-4-(4-fluorophenyl)-6-((1-methyl-1H-pyrazolo[4,3-c]pyridin-4-yl)methoxy)pyrimidin-2-amine]
22 | – | 5930 nM and 9830 nM | Cc1cc(-c2c(OCc3cc(N4CCOCC4)cc(C(C)(C)O)n3)nc(N)nc2-c2ccc(F)cc2)cc(C(F)F)n1 [Example 424, 2-(6-(((2-amino-5-(2-(difluoromethyl)-6-methylpyridin-4-yl)-6-(4-fluorophenyl)pyrimidin-4-yl)oxy)methyl)-4-morpholinopyridin-2-yl)propan-2-ol]
23 | – | > 30000 nM | Cc1cc(-c2c(OCc3ccc(=O)n(C(C)(C)C(=O)O)n3)nc(N)nc2-c2ccc(F)cc2)cc(C(F)F)n1 [Example 428, 2-(3-(((2-amino-5-(2-(difluoromethyl)-6-methylpyridin-4-yl)-6-(4-fluorophenyl)pyrimidin-4-yl)oxy)methyl)-6-oxopyridazin-1(6H)-yl)-2-methylpropanoic acid]
24 | – | 1260 nM | Cc1cc(-c2c(OCc3cccc(C(O)(CCO)CCO)n3)nc(N)nc2-c2ccc(F)cc2)cc(C(F)F)n1 [Example 432, 3-(6-(((2-amino-5-(2-(difluoromethyl)-6-methylpyridin-4-yl)-6-(4-fluorophenyl)pyrimidin-4-yl)oxy)methyl)pyridin-2-yl)pentane-1,3,5-triol]
25 | – | 506 nM | Cc1cc(-c2c(OCc3cc(C#N)cc(C(C)(C)O)n3)nc(N)nc2-c2ccc(F)cc2)cc(C(F)F)n1 [Example 435, 2-(((2-amino-5-(2-(difluoromethyl)-6-methylpyridin-4-yl)-6-(4-fluorophenyl)pyrimidin-4-yl)oxy)methyl)-6-(2-hydroxypropan-2-yl)isonicotinonitrile]
26 | – | > 3000 nM | Cc1cc(-c2c(OCc3cc(-c4nn[nH]n4)cc(C(C)(C)O)n3)nc(N)nc2-c2ccc(F)cc2)cc(C(F)F)n1 [Example 441, 2-(6-(((2-amino-5-(2-(difluoromethyl)-6-methylpyridin-4-yl)-6-(4-fluorophenyl)pyrimidin-4-yl)oxy)methyl)-4-(2H-tetrazol-5-yl)pyridin-2-yl)propan-2-ol]
